{
  "source": "patent US20050058658A1",
  "about": "“Compositions and methods for immunotherapy of human immunodeficiency virus (HIV)” (priority 2003, published 2005)",
  "key": {"[1]": {"system": "experimental autoimmune encephalomyelitis (EAE)", "experiment": "Experimental autoimmune encephalomyelitis (EAE) model", "format": "in vivo, SJL mice", "conditions": "5 mg s.c. daily for 5 days from day 10", "protocol": "This hyposthesis was tested in the experimental autoimmune encephalomyelitis (EAE) model in SJL mice. EAE is induced in mice by immunization with spinal cord derived myelin basic protein which induces a disease in the mice which is very similar to multiple schlerosis (MS) in humans.\nTreatments were given daily for 5 days. Linomide is a drug that is known to inhibit EAE and is used as a positive control. […] Severity of EAE is measured by means of the EAE score which starts at 0 for normal and increases to a score of 5 when death occurs. For ethical reasons mice are sacrificed when a score of 4 is reached."}, "[2]": {"system": "HIV-1IIIB infected CEM-SS cells", "experiment": "MTT staining for cell viability, HIV-1 hollow fiber mouse model", "format": "in vivo", "protocol": "(§1) The HIV-1 hollow fiber mouse model was performed (Hollingshead et al., Antiviral Res. 1995, 28:265-279; Buckheit et al., AIDS Res. Hum. Retroviruses 1997, 13:789-796; Xu et al., Bioorg. Med. Chem. Lett. 1999, 9:133-138; Quenelle et al., Antiviral Res. 1997, 35:123-129). In brief, CEM-SS cells were infected with HIV-1IIIB at a multiplicity of infection (MOI) of 0.0002 and sealed in hollow fibers (2×10^5 cells/fiber) immediately prior to implantation in the mice. Cell control hollow fibers (mock infected) and blank fibers (containing tissue culture medium without cells or virus) were prepared in a similar manner. Hollow fibers were implanted in the subcutaneous and intraperitoneal compartments of the mice (three fibers/compartment/mouse). Mice were treated with the E. tenella protein extract once daily (0.1 mL/10 g body weight) on day 0 (immediately prior to implantation of the fibers) and on days 1-6. Cell control, virus control and blank control mice were dosed similarly using 30 mM Hepes. AZT treated mice were also dosed similarly, however, dosing was performed twice daily at a concentration of 150 mg/kg (300 mg/kg/day). On day seven post implantation, the fibers, blood samples and peritoneal wash were collected from the mice. The viability of the infected CEM-SS cells collected from hollow fibers was determined using an MTT dye conversion assay. Viral reverse transcriptase assay and p24 (capsid) antigen quantification were performed on the hollow fiber cultures as well as the blood samples and the peritoneal wash. Of the three fibers collected from each compartment (intraperitoneal and subcutaneous), one fiber was used for analysis of viral reverse transcriptase and p24, while the remaining two fibers used to analyze cell viability by MTT dye reduction. The experimental treatment groups used in the study included the following: • 1. E. tenella protein extract concentration #1 (virus infected fibers; 7 mice) • 2. E. tenella protein extract concentration #2 (virus infected fibers; 7mice) • 3. E. tenella protein extract concentration #3 (virus infected fibers; 7 mice) • 4. AZT; positive control antiviral drug (virus infected fibers; 7 mice) • 5. Virus Control, no drug treatment (treated with vehicle; virus infected fibers; 7 mice) • 6. Cell Control, no drug treatment (treated with vehicle; mock-infected fibers; 7 mice) • 7. Blank Control, no drug treatment (treated with vehicle; “empty” fibers; 2 mice) MTT Staining for Cell Viability:\nThe viability of cells in the hollow fiber cultures was measured using an MTT dye reduction assay. MTT is a tetrazolium dye that is metabolized by the mitochondria enzymes of metabolically active cells to yield a […] formazan product that can be detected spectrophotometrically. Following collection from the animals, hollow fibers were placed individually into the wells of a 6-well tissue culture plate containing 2 mL of pre-warmed (37° C.) RPMI medium (without phenol red) supplemented with 20% fetal bovine serum. Cells were assayed to viability by adding 180 μL of MTT stock solution (pre-warmed to 37° C.) to each of the wells, followed by incubation for 4 hours at 37° C. in a 5% CO2 atmosphere, removal of medium/MTT solution, and addition of 4 mL of 2.5% Protamine Sulfate (PMS). […] Subsequently, 150 μL of each sample was transferred to a 96 well plate and the optical density of the samples read at 570/650 nm using a Molecular Devices Vmax or SpectraMaxPlus plate reader."}, "[3]": {"system": "HIV-1IIIB infected CEM-SS cells", "experiment": "p24 antigen ELISA, HIV-1 hollow fiber mouse model", "format": "in vivo", "conditions": "150 mg/kg twice daily (300 mg/kg/day), day 7", "protocol": "as §1\nFollowing collection of the fibers from the mice, detection of p24 antigen was performed according to the manufacturer's instructions. Individual fibers were cut open and placed in Eppendorf tubes and cells lysed by the addition of 250 μl of lysis buffer (0.02 M Tris-HCl pH 7.5, 0.05 M NaCl, 0.5% Triton X-100), incubation at room temperature for 30 minutes, vortexing, followed by centrifugation at 14,000 rpm for four minutes in a microcentrifuge. Serum and peritoneal wash samples were clarified by centrifugation without further manipulation prior to analysis. All p24 determinations on the resulting supernatants were performed following serial dilution of the samples to ensure absorbances in the linear range of the standard p24 antigen curve. The standard curve is produced using manufacturer-supplied standards and instructions. Data are obtained by spectrophotometric analysis at 450/570 nm using a Molecular Devices Vmax or SpectraMaxPlus plate reader. Final concentrations are calculated from the optical density values using the Molecular Devices SoftMax Pro software package and expressed in pg/ml p24 antigen."}, "[4]": {"system": "HIV-1IIIB infected CEM-SS cells", "experiment": "Reverse transcriptase assay, HIV-1 hollow fiber mouse model", "format": "in vivo", "conditions": "150 mg/kg twice daily (300 mg/kg/day), day 7", "protocol": "as §1\nA microtiter plate-based reverse transcriptase (RT) reaction was utilized (Buckheit et al., AIDS Research and Human Retroviruses 1991, 7:295-302). Tritiated thymidine triphosphate (^3H-TTP 80 Ci/mmol, NEN) was received in 1:1 dH2O: Ethanol at 1 mCi/mL. Poly rA:oligo dT template:primer (Pharmacia) was prepared as a stock solution by combining 150 μL poly rA (20 mg/mL) with 0.5 mL oligo dT (20 units/mL) and 5.35 mL sterile dH2O followed by aliquoting (1.0 mL) and storage at −20° C. The RT reaction buffer was prepared fresh on a daily basis and consisted of 125 μL 1.0 M EGTA, 125 μL dH2O, 125 μL 20% Triton X100, 50 μL 1.0 M Tris (pH 7.4), 50 μL 1.0 M DTT, and 40 μL 1.0 M MgCl2. The final reaction mixture was prepared by combining 1 part ^3H-TTP, 4 parts dH2O, 2.5 parts poly rA:oligo dT stock and 2.5 parts reaction buffer. Ten microliters of this reaction mixture was placed in a round bottom microtiter plate and 15 μL of supernatant resulting from the lysis of cells collected from the fibers (see the section describing the p24 Antigen ELISA above) or serum or peritoneal wash (serum and peritoneal wash samples were clarified by centrifugation without further manipulation prior to analysis) was added and mixed. The plate was incubated at 37° C. for 60 minutes. […]"}, "[5]": {"conditions": "150 mg/kg twice daily (300 mg/kg/day), day 7"}, "[6]": {"conditions": "150 mg/kg twice daily (300 mg/kg/day), fibers day 7, optical density 570/650 nm"}},
  "data": [
    {"smiles": "CN(C(=O)c1c(O)c2ccccc2n(C)c1=O)c1ccccc1", "note": "[Linomide]", "values": [
      {"measurement": "Day 15 EAE Score ± SD", "setting": "[1]", "result": "0.6 ± 1.3"}
    ]},
    {"smiles": "Cc1cn([C@H]2C[C@H](N=[N+]=[N-])[C@@H](CO)O2)c(=O)[nH]c1=O", "note": "[AZT, 3′-Azido-3′-deoxythymidine]", "values": [
      {"measurement": "MTT Intraperitoneal Fiber, % CPE Reduction, % Value", "setting": "[2]; [5]", "result": 0.00, "unit": "%"},
      {"measurement": "MTT Subcutaneous Fiber, % CPE Reduction, % Value", "setting": "[2]; [5]", "result": 6.83, "unit": "%"},
      {"measurement": "MTT Intraperitoneal Fiber, Average", "setting": "[2]; [6]", "result": 1.11},
      {"measurement": "MTT Subcutaneous Fiber, Average", "setting": "[2]; [6]", "result": 0.96},
      {"measurement": "Effect on cytopathic effect (CPE) of HIV-1IIIB on CEM-SS cells", "setting": "[2]; hollow fiber cultures, all concentrations tested", "result": "did not have an effect on this viral endpoint"},
      {"measurement": "p24 Intraperitoneal Fiber, % Virus Control, % Value", "setting": "[3]", "result": 99.1, "unit": "%"},
      {"measurement": "p24 Intraperitoneal Fiber, Average", "setting": "[3]", "result": 215136, "unit": "pg/mL"},
      {"measurement": "p24 Peritoneal Wash, % Virus Control, % Value", "setting": "[3]", "result": 92.8, "unit": "%"},
      {"measurement": "p24 Peritoneal Wash, Average", "setting": "[3]", "result": 109, "unit": "pg/mL"},
      {"measurement": "p24 Serum, % Virus Control, % Value", "setting": "[3]", "result": 37.0, "unit": "%"},
      {"measurement": "p24 Serum, Average", "setting": "[3]", "result": 18, "unit": "pg/mL"},
      {"measurement": "p24 Subcutaneous Fiber, % Virus Control, % Value", "setting": "[3]", "result": 110.3, "unit": "%"},
      {"measurement": "p24 Subcutaneous Fiber, Average", "setting": "[3]", "result": 312334, "unit": "pg/mL"},
      {"measurement": "Reverse Transcriptase Intraperitoneal Fiber, % Virus Control, % Value", "setting": "[4]", "result": 52.8, "unit": "%"},
      {"measurement": "Reverse Transcriptase Intraperitoneal Fiber, Average", "setting": "[4]", "result": 6372, "unit": "CPM"},
      {"measurement": "Reverse Transcriptase Peritoneal Wash, % Virus Control, % Value", "setting": "[4]", "result": 25.7, "unit": "%"},
      {"measurement": "Reverse Transcriptase Peritoneal Wash, Average", "setting": "[4]", "result": 392, "unit": "CPM"},
      {"measurement": "Reverse Transcriptase Serum, % Virus Control, % Value", "setting": "[4]", "result": 52.8, "unit": "%"},
      {"measurement": "Reverse Transcriptase Serum, Average", "setting": "[4]", "result": 403, "unit": "CPM"},
      {"measurement": "Reverse Transcriptase Subcutaneous Fiber, % Virus Control, % Value", "setting": "[4]", "result": 71.9, "unit": "%"},
      {"measurement": "Reverse Transcriptase Subcutaneous Fiber, Average", "setting": "[4]", "result": 10178, "unit": "CPM"}
    ]}
  ]
}
